The source of these data is PMC10544575, “Inhibitory mechanism of vortioxetine on CYP450 enzymes in human and rat liver microsomes” (Frontiers in Pharmacology, 2023).

Usually Cmax stands for the peak of the concentration-time curve. As a reminder, the Ki is a dissociation constant, usually derived from enzyme kinetics or from competition with a known ligand. Low readings indicate a stronger hold on the target, high ones a looser hold on the target. One may read the IC50 as the concentration that gives 50% inhibition.

On the set-up of data set [1]: method as in Chen et al., 2018. The conditions noted are these: single oral dose of 10 mg; 14 healthy subjects; ref Chen et al., 2018; cited from earlier work.
In data set [2] the target is CYP3A4 (Homo sapiens, UniProt P08684). Description: Reversible inhibition kinetics (Lineweaver-Burk), CYP3A4 in HLMs. The data set is classed as in vitro ADME. Also on record: 0.20 mg/mL HLMs; from tissue; host or cells: human liver microsomes. The conditions noted are these: midazolam. The procedure: (§1) The components of the incubation system were as follows: 0.20 mg/mL HLMs or 0.20 mg/mL RLMs, 0.1 M Tris-HCl, vortioxetine, and the probe substrates of each enzyme. In the study of Km’s (Michaelis–Menten constant) experiment, midazolam (1, 2, 5, 10, 20, 50 and 100 μM in HLMs and RLMs) corresponded to CYP3A4/3A; bupropion (10, 20, 50, 100, 200, 500, 1,000 and 2000 μM in HLMs; 1, 2, 5, 10, 20, 50, 100 and 200 μM in RLMs) corresponded to CYP2B6/2B; amodiaquine (5, 10, 20, 50, 100 and 200 μM in HLMs; 10, 20, 50, 100, 200, 500 μM in RLMs) corresponded to CYP2C8/CYP2C-1; losartan (1, 2, 5, 10, 20, 50, 100, 200 μM in HLMs; 10, 20, 50, 100, 200, 500 and 1,000 μM in RLMs) corresponded to CYP2C9/CYP2C-2; mephenytoin (20, 50, 100, 200, 500 and 1,000 μM in HLMs; 5, 10, 20, 50, 100, 200, 500 and 1,000 μM in RLMs) corresponded to CYP2C19/CYP2C-3; and dextromethorphan (1, 2, 5, 10, 20, 50 and 100 μM in HLMs and RLMs) corresponded to CYP2D6/CYP2D. After 5.0 min of preincubation in the shaking water bath, the reaction was started with the addition of 1.0 mM NADPH. The incubated temperature at 37°C for 30 min. After the incubation, the enzyme reaction was stopped by cooling at −80°C, and 200 μL of acetonitrile and 20 μL of internal standard diazepam (200 ng/mL) were added for protein precipitation. The solution was fully vortexed and centrifuged at 13,000 × rpm for 10 min, and the supernatant was collected for data analysis by UPLC-MS/MS.
(§2) The inhibitory mechanism of the inhibitor on the enzyme was generally used by different concentrations of the inhibitor against different concentrations of the probe substrate. The concentrations of the inhibitor and the concentrations of probe substrates in the experiment were estimated based on IC50 and Km values, respectively.
(§3) In HLMs, the concentrations of the substrates midazolam, bupropion, amodiaquine, losartan, mephenytoin, and dextromethorphan were 1, 2, 4, 8 μM; 10, 20, 40, 80 μM; 0.8, 1.5, 3, 6 μM; 2, 4, 8, 16 μM; 20, 45, 90, 180 μM; 2.5, 5, 10, 20 μM, respectively. Corresponding to the concentration of vortioxetine were 2, 4, 9, 18 μM; 2, 4, 8, 16 μM; 4, 8, 15, 30 μM; 5, 10, 25, 50 μM; 0.6, 1.2, 2.5, 5 μM; 4.5, 9, 18, 36 μM, respectively.
All experiments results were detected by UPLC-MS/MS, which equipped with a Waters Acquity UPLC system (Milford, MA, United States) and a Waters Xevo TQ-S triple quadrupole tandem mass spectrometer with an electrospray ionization source (Milford, MA, United States). The chromatographic separation was performed on a Waters ACQUITY UPLC BEH C18 column (2.1 × 50 mm, 1.7 μm, Waters Corp.) at 40°C. […]
IC50 values and enzyme kinetic parameters were calculated by Graphpad Prism 6.0 (GraphPad software Inc., CA, United States). […] Data for each experiment were expressed as mean ± SD (n = 3).

In data set [3] the target is T1, CYP2C8 (Homo sapiens, UniProt P10632).
T1 sequence (P10632 1-490): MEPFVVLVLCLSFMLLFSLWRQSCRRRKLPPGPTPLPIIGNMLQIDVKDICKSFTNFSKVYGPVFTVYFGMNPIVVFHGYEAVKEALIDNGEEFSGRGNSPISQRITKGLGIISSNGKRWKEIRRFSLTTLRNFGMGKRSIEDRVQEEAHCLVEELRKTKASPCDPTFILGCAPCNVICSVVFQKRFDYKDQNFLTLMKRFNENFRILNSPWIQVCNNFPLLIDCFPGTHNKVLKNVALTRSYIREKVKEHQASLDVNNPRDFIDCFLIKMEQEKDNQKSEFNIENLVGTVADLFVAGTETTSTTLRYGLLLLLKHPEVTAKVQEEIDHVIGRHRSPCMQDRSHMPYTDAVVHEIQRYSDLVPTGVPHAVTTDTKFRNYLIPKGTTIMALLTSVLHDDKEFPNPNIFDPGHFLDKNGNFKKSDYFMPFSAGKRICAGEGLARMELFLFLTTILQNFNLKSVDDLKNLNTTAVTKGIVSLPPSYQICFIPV
Description: Reversible inhibition kinetics (Lineweaver-Burk), CYP2C8 in HLMs. The data set is classed as in vitro ADME. On the set-up: 0.20 mg/mL HLMs or 0.20 mg/mL RLMs; from tissue; host or cells: human liver microsomes. The procedure: as §1, §2, §3
All experiments results were detected by UPLC-MS/MS, which equipped with a Waters Acquity UPLC system (Milford, MA, United States) and a Waters Xevo TQ-S triple quadrupole tandem mass spectrometer with an electrospray ionization source (Milford, MA, United States). The chromatographic separation was performed on a Waters ACQUITY UPLC BEH C18 column (2.1 × 50 mm, 1.7 μm, Waters Corp.) at 40°C. The mobile phase was consisted of acetonitrile (A) and 0.1% formic acid in water (B). The gradient elution at a flow rate of 0.4 mL/min was conducted as follows: 0–0.5 min, 10% A; 0.5–1.0 min, 10%–90% A; 1.0–2.0 min, 90% A; 2.0–2.1 min, 90%–10% A, and 2.1–3.0 min, 10% A. The relevant analysis parameters were shown in Table 1.
IC50 values and enzyme kinetic parameters were calculated by Graphpad Prism 6.0 (GraphPad software Inc., CA, United States). Lineweaver-Burk Plot was used to determine inhibitor patterns. Dixon plots of Ki values were obtained from the slope of the nonlinear regression line in the Lineweaver-Burk plot as a function of different inhibitor concentrations, while secondary plots for αKi were obtained from the y-intercept of the nonlinear regression line in Lineweaver-Burk Plot versus concentration of different inhibitors. Data for each experiment were expressed as mean ± SD (n = 3).

Data set [4] relates to CYP2C-2. Nature of the data set: IC50-shift experiment, CYP2C-2 in RLMs. The data set is classed as in vitro ADME, rat. The conditions noted are these: for IC50 at 30 min: losartan 15 μM.

Sequence of CYP3A4 (P08684 whole entry): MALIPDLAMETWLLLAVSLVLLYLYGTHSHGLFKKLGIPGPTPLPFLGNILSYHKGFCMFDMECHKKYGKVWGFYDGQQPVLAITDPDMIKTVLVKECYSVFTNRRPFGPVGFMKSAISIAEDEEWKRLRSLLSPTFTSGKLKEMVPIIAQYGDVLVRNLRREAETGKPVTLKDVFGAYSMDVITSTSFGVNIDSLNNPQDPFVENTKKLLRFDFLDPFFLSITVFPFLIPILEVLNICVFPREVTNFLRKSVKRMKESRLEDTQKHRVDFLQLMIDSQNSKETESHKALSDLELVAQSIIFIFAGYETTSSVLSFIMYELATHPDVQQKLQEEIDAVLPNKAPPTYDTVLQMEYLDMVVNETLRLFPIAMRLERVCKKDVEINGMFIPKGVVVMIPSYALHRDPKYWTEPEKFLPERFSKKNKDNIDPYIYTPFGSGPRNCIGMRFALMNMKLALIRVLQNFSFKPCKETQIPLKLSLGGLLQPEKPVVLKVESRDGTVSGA

For `Cc1ccc(Sc2ccccc2N2CCNCC2)c(C)c1` [vortioxetine], the “AUC(0-t)” value in data set [1] was 254.72 ngh/mL. Further, the maximum concentration (Cmax) in data set [1] is reported as 4.60 ng/mL. In addition, the results for the inhibitory constant (Ki) in data set [2] and in data set [3] (amodiaquine) were 7.26 µM and 6.96 µM, respectively. Further, the α in data set [2] worked out at 0.94; in data set [3] (amodiaquine), 1.94. The Inhibition type result in data set [2] (Lineweaver-Burk plot) was “noncompetitive inhibition”; in data set [3] (amodiaquine, Lineweaver-Burk plot), “noncompetitive inhibition”. Besides, the αKi in data set [2] (secondary plot of y-intercepts) stood at 6.82 µM; in data set [3] (amodiaquine, secondary plot of y-intercepts), 13.48 µM. For the same molecule, the Ki at 30 min in data set [3] (human, human liver microsomes, probe amodiaquine) turned out to be 2.96 µM. In addition, in data set [4] (preincubation with NADPH vs without), the “activity of CYP2C-2 with the NADPH” value is given as “significantly increased”. In addition, the IC50 at 30 min worked out at 37.5 µM in data set [4] (rat, rat liver microsomes, probe losartan, CYP2C-2, 30 min preincubation with 1.0 mM NADPH) and 8.97 µM in data set [4] (rat, rat liver microsomes, probe losartan, CYP2C-2, 30 min preincubation without NADPH). In data set [4] (rat, rat liver microsomes, probe losartan, CYP2C-2, ratio IC50 (−) NADPH to IC50 (+) NADPH, read-out: IC50 fold shift), the IC50 shift at 30 min came to 0.24.
